Converted amounts (≈) assume the structure as drawn. Where two headings read alike, the source gives them in different places.

Assay [1] concerns Mycobacterium tuberculosis H37Rv. The assay can be described thus: Antitubercular activity, growth inhibition by Alamar-Blue / resazurin microtiter assay. It is filed as cell-based. For orientation: The colour change of resazurin is a common sign of viable cells or microbes.
Assay [2] has the same test system. Particulars: according to literature (Biava. M et. al; J. Med. Chem 2008; 51; 3644); cited from earlier work.

Consider `Cc1c(CN2CCN(C)CC2)cc(-c2ccc(Cl)cc2)n1-c1ccc(Cl)cc1` [BM212, 1,5-diaryl-2-methyl-3-(4-methylpiperazin-1-yl)methyl-pyrrole, reference compound], for which the MIC in assay [1] (H37Rv, 7H9-OADC media with 0.5% glycerol and 1 mg ml−1 tryptone, 37° C., 96-well plates, visual readout, read-out: MIC) is 1.56 µg/mL (≈ 3.76 µM); in assay [2], 0.7 µg/mL (≈ 1.69 µM).
`Cc1c(CN2CC[Si](C)(C)CC2)cc(-c2ccc(Cl)cc2)n1-c1ccc(Cl)cc1` [Compound 9, 1-((1,5-bis(4-chlorophenyl)-2-methyl-1H-pyrrol-3-yl)methyl)-4,4-dimethyl-1,4-azasilinane] came in with an MIC in assay [1] (H37RV) of 0.04 µg/mL (≈ 0.0902 µM).
`CSc1ccc(-c2cc(CN3CC[Si](C)(C)CC3)c(C)n2-c2ccc(F)cc2)cc1` [Compound 10a, 1-((1-(4-fluorophenyl)-2-methyl-5-(4-(methylthio)phenyl)-1H-pyrrol-3-yl)methyl)-4,4-dimethyl-1,4-azasilinane] returned an MIC in assay [1] (H37RV) of 0.08 µg/mL (≈ 0.182 µM).
Turning to `CSc1ccc(-c2c(CN3CC[Si](C)(C)CC3)cc(C)n2-c2ccc(F)cc2)cc1` [Compound 10b, 1-((1-(4-fluorophenyl)-5-methyl-2-(4-(methylthio)phenyl)-1H-pyrrol-3-yl)methyl)-4,4-dimethyl-1,4-azasilinane], the MIC in assay [1] (H37RV) worked out at 1.56 µg/mL (≈ 3.56 µM).
In assay [1] (H37RV), `Cc1c(CN2CC[Si](C)(C)CC2)cc(-c2ccc(C(C)C)cc2)n1-c1ccc(Cl)cc1` [Compound 11a, 1-((1-(4-chlorophenyl)-5-(4-isopropylphenyl)-2-methyl-1H-pyrrol-3-yl)methyl)-4,4-dimethyl-1,4-azasilinane] showed an MIC of 0.04 µg/mL (≈ 0.0887 µM).
In turn, `CSc1ccc(-c2cc(CN3CC[Si](C)(C)CC3)c(C)n2-c2ccc(C(C)C)cc2)cc1` [Compound 12a, 1-((1-(4-isopropylphenyl)-2-methyl-5-(4-(methylthio)phenyl)-1H-pyrrol-3-yl)methyl)-4,4-dimethyl-1,4-azasilinane] registered an MIC in assay [1] (H37RV) of 0.04 µg/mL (≈ 0.0864 µM).
Regarding `CSc1ccc(-c2c(CN3CC[Si](C)(C)CC3)cc(C)n2-c2ccc(C(C)C)cc2)cc1` [Compound 12b, 1-((1-(4-isopropylphenyl)-5-methyl-2-(4-(methylthio)phenyl)-1H-pyrrol-3-yl)methyl)-4,4-dimethyl-1,4-azasilinane], the MIC in assay [1] (H37RV) was 1.25 µg/mL (≈ 2.7 µM).
As to `CCc1ccc(-n2c(-c3ccc(Cl)cc3)cc(CN3CC[Si](C)(C)CC3)c2C)cc1` [Compound 13, 1-((5-(4-chlorophenyl)-1-(4-ethylphenyl)-2-methyl-1H-pyrrol-3-yl)methyl)-4,4-dimethyl-1,4-azasilinane], 0.08 µg/mL (≈ 0.183 µM) was the least that counted as inhibitory in assay [1] (H37RV) (MIC).
In assay [1] (H37RV), `COc1ccc(-c2c(CN3CC[Si](C)(C)CC3)cc(C)n2-c2ccc(F)cc2)cc1` [Compound 14, 1-((1-(4-fluorophenyl)-2-(4-methoxyphenyl)-5-methyl-1H-pyrrol-3-yl)methyl)-4,4-dimethyl-1,4-azasilinane] yielded an MIC of 3.12 µg/mL (≈ 7.38 µM).
Turning to `Cc1c(CN2CC[Si](C)(C)CC2)cc(-c2ccc(Cl)cc2)n1-c1ccccc1` [Compound 15, 1-((5-(4-chlorophenyl)-2-methyl-1-phenyl-1H-pyrrol-3-yl)methyl)-4,4-dimethyl-1,4-azasilinane], in assay [1] (H37RV), the MIC worked out at 0.04 µg/mL (≈ 0.0978 µM).
As to `CCc1ccc(-c2cc(CN3CC[Si](C)(C)CC3)c(C)n2-c2ccc(OC)cc2)cc1` [Compound 16, 1-((5-(4-ethylphenyl)-1-(4-methoxyphenyl)-2-methyl-1H-pyrrol-3-yl)methyl)-4,4-dimethyl-1,4-azasilinane], the MIC in assay [1] (H37RV) turned out to be 0.08 µg/mL (≈ 0.185 µM).
In assay [1] (H37RV), `Cc1ccc(-c2cc(CN3CC[Si](C)(C)CC3)c(C)n2-c2ccc(F)cc2)cc1` [Compound 17, 1-((1-(4-fluorophenyl)-2-methyl-5-(p-tolyl)-1H-pyrrol-3-yl)methyl)-4,4-dimethyl-1,4-azasilinane] displayed an MIC of 0.04 µg/mL (≈ 0.0984 µM).
`CCOc1ccc(-c2c(CN3CC[Si](C)(C)CC3)cc(C)n2-c2ccc(OC)cc2)cc1` [Compound 18, 1-((2-(4-ethoxyphenyl)-1-(4-methoxyphenyl)-5-methyl-1H-pyrrol-3-yl)methyl)-4,4-dimethyl-1,4-azasilinane] came in with an MIC in assay [1] (H37RV) of 5 µg/mL (≈ 11.1 µM).
The compound `Cc1c(CN2CC[Si](C)(C)CC2)cc(-c2ccc(Cl)cc2)n1-c1ccc(C(C)C)cc1` [Compound 19, 1-((5-(4-chlorophenyl)-1-(4-isopropylphenyl)-2-methyl-1H-pyrrol-3-yl)methyl)-4,4-dimethyl-1,4-azasilinane] displayed an MIC in assay [1] (H37RV) of 0.04 µg/mL (≈ 0.0887 µM).

By MIC is commonly meant the lowest concentration that inhibits growth of the organism.

Source of the values: patent publication US9657037B2, “Pyrrole compounds with silicon incorporation” (COUNCIL OF SCIENTIFIC AND INDUSTRIAL RESEARCH, priority 2013, dated 2017).
